Structures are written as SMILES. Where a name gives a salt, the structure may show the parent alone.

This note sets out measurements from patent US7256204B2, “Amine compounds, their production and use” (Takeda Pharmaceutical Company Limited, priority 1997, dated 2007).

The first data set deals with Aβ1-40 production and/or secretion in human neuroblastoma IMR-32 cells. Put plainly: Inhibition of amyloid-β protein production in IMR-32 cells, EIA for Aβ1-40. The format is cell-based. The conditions noted are these: test compound 10 μM, 24 hours incubation, effect to inhibit production and/or secretion as percentage relative to the control. How it is done: (§1) Compounds of the present invention were tested for effect of inhibiting amyloid-β protein production in human neuroblastoma IMR-32 cells. Herein referred to were references, Science, 264, 1336 (1994) and Biochemistry, 34, 10272 (1995), etc.
(§2) IMR-32 cells were cultivated in a flask (Falcon, 750 ml) containing 10% FCS/DMEM medium, in an atmosphere of 10% CO2/90% air, at 37° C. to be in confluence. The cultivated cells were seeded into a 48-well plate in a density of 2.5×10^5 cells/well, and incubated therein for 3 days under the same condition as above. Then, the culture medium was removed through suction.
(§3) A dimethylformamide (DMF) solution containing a test compound was dissolved in 0.5 ml of 0.5% BSA/DMEM, and added to the plate, and the cells were incubated for further 24 hours. As the control, the same volume of DMF but not containing the test compound was dissolved in 0.5 ml of 0.5% BSA/DMEM, and added to the plate. […]
(§4) The plate was washed three times with PBS, and 100 μl of an HRP-labeled secondary antibody (BA-27 antibody or BC-05 antibody labeled with HRP, horseradish peroxidase) as dissolved in a buffer for secondary reaction (20 mM phosphate buffer, pH 7.0; 400 mM NaCl; 2 mM EDTA; 1% BSA) was added thereto. […] Then, using a plate reader (MTP-32 Microplate Reader, by Corona Co.), the sample on the plate was subjected to calorimetric determination (at 450 nm). […]
As to `CN(C)CCC1CCc2cc(OCc3ccc(-c4ccccc4)cc3)ccc2C1.Cl` (stereo not shown) [Example 12, 6-(4-Biphenylyl)methoxy-2-[2-(N,N-dimethylamino)ethyl]tetralin hydrochloride], the “Aβ1–40 (%)” value was determined as 74%.

The next data set has as its system Aβ1-42 production and/or secretion in human neuroblastoma IMR-32 cells. Put plainly: Inhibition of amyloid-β protein production in IMR-32 cells, EIA for Aβ1-42. Type of data set: cell-based. The following applies: test compound 10 μM, 24 hours incubation, effect to inhibit production and/or secretion as percentage relative to the control. How it is done: as §1, §2, §3, §4
On to `CN(C)CCC1CCc2cc(OCc3ccc(-c4ccccc4)cc3)ccc2C1.Cl` (stereo not shown) [Example 12, 6-(4-Biphenylyl)methoxy-2-[2-(N,N-dimethylamino)ethyl]tetralin hydrochloride], for which the “Aβ1–42 (%)” value was 75%.

Another data set deals with mouse. Put plainly: Experiment of acute toxicity, oral administration. The format is in vivo. The following applies: dose of more than 1000 mg/kg. The source says:
In addition, compounds (I) and (I′) have low toxicity. […] Moreover, compounds (I) and (I′) easily penetrate into the brain following the oral administration.
Consider `CN(C)CCC1CCc2cc(OCc3ccc(-c4ccccc4)cc3)ccc2C1.Cl` (stereo not shown) [Example 12, 6-(4-Biphenylyl)methoxy-2-[2-(N,N-dimethylamino)ethyl]tetralin hydrochloride], for which the “acute toxicity (death)” value is “no mouse was dead”.

System in the next data set: not given
Assay: not given
Conditions: not given
In turn, `CN(C)CC1CCc2ccc(OCc3ccc4ccccc4c3)cc2C1.Cl` (stereo not shown) displayed a melting point of 201 to 202 °C.

Consider `Cl.c1ccc(C2CCN(CCC3CCc4cc(OCc5ccc6ccccc6c5)ccc4C3)CC2)cc1` (stereo not shown), for which the melting point is 229 to 234 °C (dec.).

Regarding `CNCC1CCc2cc(OCc3ccc(-c4ccccc4)cc3)ccc2C1.Cl` (stereo not shown), the melting point is 189 to 190 °C.

Take `CN(C)CCCCC1CCc2cc(OCc3ccc(-c4ccccc4)cc3)ccc2C1.Cl` (stereo not shown): the melting point lay within 175 to 177 °C.

For the molecule `CC(=O)N(Cc1ccc(-c2ccccc2)cc1)c1ccc2c(c1)CCC(CN(C)C)C2.Cl` (stereo not shown), the melting point was 179 to 182 °C.

`CN(C)CC1CCc2cc(OCc3ccc(-c4cc(C(F)(F)F)cc(C(F)(F)F)c4)cc3)ccc2C1.Cl` (stereo not shown) displayed a melting point of 196 to 197 °C.

Turning to `CN(C)CC1CCc2cc(OCc3ccc(-c4ccsc4)cc3)ccc2C1.Cl` (stereo not shown), the melting point lay in the range of 222 to 223 °C.

`COc1ccc(-c2ccccc2COc2ccc3c(c2)CCC(CN(C)C)C3)cc1.Cl` (stereo not shown) yielded a melting point of 170 to 171 °C.

`CN(C)CC1CCc2cc(OCc3ccc(-c4cccnc4)cc3)ccc2C1` (stereo not shown) (as salt: hydrochloride) showed a melting point of 212 to 213 °C.

Consider `Cl.c1ccc2cc(COc3ccc4c(c3)CCC(CN3CCCCC3)C4)ccc2c1` (stereo not shown), for which the melting point was 215 to 218 °C (dec.).

On to `CN(C)CC1CCc2cc(OCc3cccc(-c4ccccc4)c3)ccc2C1.Cl` (stereo not shown), for which the melting point is 186 to 190 °C.

`CN(C)CC1CCc2cc(OCc3ccc4ccccc4c3)ccc2C1.Cl` (stereo not shown) showed a melting point of 228 to 229 °C.

As for `Cc1ccc(-c2ccc(COc3ccc4c(c3)CCC(CN(C)C)C4)cc2)cc1.Cl` (stereo not shown), the melting point was 226 to 228 °C.

Take `CN(C)CC1CCc2cc(OCc3ccc(-c4ccc(F)cc4)cc3)ccc2C1.Cl` (stereo not shown): the melting point is 223 to 234 °C.

The molecule `CN(C)CC1CCc2cc(OCc3cccc(-c4ccc(F)cc4)c3)ccc2C1.Cl` (stereo not shown) yielded a melting point of 171 to 172 °C.

For the molecule `CN(C)CC1CCc2cc(OCc3ccc(-c4ccc(C=O)cc4)cc3)ccc2C1.Cl` (stereo not shown), the melting point was 234 to 235 °C.

Molecule `Cl.OC1(O)CCN(CCC2CCc3cc(OCc4ccc(-c5ccccc5)cc4)ccc3C2)CC1` (stereo not shown) showed a melting point of 155 to 156 °C.

As for `CN(C)CC1CCc2cc(OCc3ccc(-c4ccccc4C#N)cc3)ccc2C1.Cl` (stereo not shown), the melting point fell in the range of 202 to 203 °C.

On to `CN(C)CC1CCc2cc(OCc3ccc(-c4cccs4)cc3)ccc2C1.Cl` (stereo not shown), for which the melting point was 227 to 228 °C.

Regarding `CN(C)CC1CCc2cc(OCc3ccc(-c4cccc([N+](=O)[O-])c4)cc3)ccc2C1.Cl` (stereo not shown), the melting point lay in the range of 223 to 234 °C.

`COc1ccccc1-c1ccc(COc2ccc3c(c2)CCC(CN(C)C)C3)cc1.Cl` (stereo not shown) displayed a melting point of 140 to 141 °C.

With `CSc1ccc(-c2ccc(COc3ccc4c(c3)CCC(CN(C)C)C4)cc2)cc1.Cl` (stereo not shown), the melting point lay within 235 to 237 °C.

On to `COc1ccc(-c2cccc(COc3ccc4c(c3)CCC(CN(C)C)C4)c2)cc1.Cl` (stereo not shown), for which the melting point is 182 to 183 °C.

Regarding `Cl.c1ccc(-c2ccc(COc3ccc4c(c3)CCC(CCN3CCCC3)C4)cc2)cc1` (stereo not shown), the melting point is 197 to 199 °C.

`CCCN(CCC)CC1CCc2cc(OCc3ccc(-c4ccccc4)cc3)ccc2C1.Cl` (stereo not shown) returned a melting point of 164 to 166 °C.

Regarding `CN(C)CC1CCc2cc(OCc3ccccc3-c3ccccc3)ccc2C1.Cl` (stereo not shown), the melting point fell in the range of 173 to 174 °C.

Molecule `COc1cccc(-c2ccc(COc3ccc4c(c3)CCC(CN(C)C)C4)cc2)c1.Cl` (stereo not shown) had a melting point of 207 to 208 °C.

Molecule `COc1ccc(-c2ccc(COc3ccc4c(c3)CCC(CCN(C)C)C4)cc2)cc1.Cl` (stereo not shown) [44] yielded a melting point of 182 to 185 °C.

The molecule `CN(C)CC1CCc2cc(OCc3ccccc3-c3ccc(F)cc3)ccc2C1.Cl` (stereo not shown) yielded a melting point of 172 to 174 °C.

`CN(C)CC1CCc2ccc(OCc3ccc(-c4ccccc4)cc3)cc2C1.Cl` (stereo not shown) gave a melting point of 232 to 233 °C.

As to `c1ccc(-c2ccc(COc3ccc4c(c3)CCC(CCN3CCC(N5CCCCC5)CC3)C4)cc2)cc1` (stereo not shown) (as salt: hydrochloride), the melting point fell in the range of 288 to 291 °C.
